{
  "source": "the NIST ThermoML archive (doi:10.1016/j.fluid.2005.05.015)",
  "conditions": "Crystal 1; visual observation",
  "note": "Numbers after ± are expanded uncertainties.",
  "data": [
    {"compound": "CC[N+](C)(C)CCO.[Br-]", "note": "[ethyl(2-hydroxyethyl)dimethylammonium bromide]", "values": [
      {"measurement": "Normal melting temperature", "value": "268.30 ± 1", "unit": "°C"}
    ]}
  ]
}
